Here are results for 32 compounds from patent publication US10654853B2, “Spiro-condensed pyrrolidine derivatives as deubiquitylating enzymes (DUB) inhibitors” (MISSION THERAPEUTICS LIMITED, priority 2016, dated 2020).

In the test the target is Cezanne 1 (Homo sapiens (Human), UniProt Q6GQQ9). The experiment in a line: Cezanne 1 biochemical IC50 assay (fluorescence polarisation, TAMRA labelled peptide linked to ubiquitin). As to the method:
The Cezanne 1 construct was PCR amplified and cloned into a pFLAG-CMV-6c vector (Sigma-Aldrich) with an N-terminal FLAG tag. HEK293T cells were transfected with FLAG-Cezanne 1 using TransIT-LT1 transfection reagent (Mirus) according to the manufacturer's instructions. Cells were harvested 48 hours after transfection. […] The resin was washed two times with low salt buffer and one time with high salt buffer (20 mM Tris, pH 7.5, 500 mM NaCl, 0.5 mM EDTA, 5 mM beta-mercaptoethanol, protease inhibitors (complete mini, Roche) and phosphatase inhibitors (PhosSTOP mini, Roche). To elute the bound Cezanne 1, elution buffer (10 mM Tris, pH 7.5, 150 mM NaCl, 0.5 mM EDTA, 10% glycerol, 0.5% NP40, 5 mM beta-mercaptoethanol, 0.15 mg/ml 3× FLAG peptide (Sigma-Aldrich)) was added to the resin and incubated at 4° C. for 2.5 hours while rotating. The resin was centrifuged at 4000 rpm for 30 seconds, and the supernatant containing purified FLAG-Cezanne 1 was removed and stored at −80° C. […] Dilution plates were prepared at 21 times the final concentration (2100 μM for a final concentration of 100 μM) in 50% DMSO in a 96-well polypropylene V-bottom plate (Greiner #651201). […] Reactions were performed in duplicate in black 384 well plates (small volume, Greiner 784076) in a final reaction volume of 21 μl. Either 1 μl of 50% DMSO or diluted compound was added to the plate. Cezanne 1 was diluted in reaction buffer (40 mM Tris, pH 7.5, 0.005% Tween 20, 0.5 mg/ml BSA, 5 mM—beta-mercaptoethanol) to the equivalent of 0.005 μl/well and 10 μl of diluted Cezanne 1 was added to the compound. Enzyme and compound were incubated for 30 min at room temp. Reactions were initiated by the addition of 50 nM of TAMRA labelled peptide linked to ubiquitin via an iso-peptide bond as fluorescence polarisation substrate. Reactions were read immediately after addition of substrate and following a 2 hr incubation at room temperature. Readings were performed on a Pherastar Plus (BMG Labtech). λ Excitation 540 nm; λ Emission 590 nm.
For orientation: Polarisation of emitted light reports the rotation of a fluorescent probe.

Where [1] appears, read: Cezanne 1 biochemical IC50 assay, 30 min pre-incubation, read after 2 hr at room temperature, read-out: IC50 range.

Like-named read-outs stand apart in the source and are kept apart here.

Cezanne 1, sequence (Q6GQQ9 whole entry): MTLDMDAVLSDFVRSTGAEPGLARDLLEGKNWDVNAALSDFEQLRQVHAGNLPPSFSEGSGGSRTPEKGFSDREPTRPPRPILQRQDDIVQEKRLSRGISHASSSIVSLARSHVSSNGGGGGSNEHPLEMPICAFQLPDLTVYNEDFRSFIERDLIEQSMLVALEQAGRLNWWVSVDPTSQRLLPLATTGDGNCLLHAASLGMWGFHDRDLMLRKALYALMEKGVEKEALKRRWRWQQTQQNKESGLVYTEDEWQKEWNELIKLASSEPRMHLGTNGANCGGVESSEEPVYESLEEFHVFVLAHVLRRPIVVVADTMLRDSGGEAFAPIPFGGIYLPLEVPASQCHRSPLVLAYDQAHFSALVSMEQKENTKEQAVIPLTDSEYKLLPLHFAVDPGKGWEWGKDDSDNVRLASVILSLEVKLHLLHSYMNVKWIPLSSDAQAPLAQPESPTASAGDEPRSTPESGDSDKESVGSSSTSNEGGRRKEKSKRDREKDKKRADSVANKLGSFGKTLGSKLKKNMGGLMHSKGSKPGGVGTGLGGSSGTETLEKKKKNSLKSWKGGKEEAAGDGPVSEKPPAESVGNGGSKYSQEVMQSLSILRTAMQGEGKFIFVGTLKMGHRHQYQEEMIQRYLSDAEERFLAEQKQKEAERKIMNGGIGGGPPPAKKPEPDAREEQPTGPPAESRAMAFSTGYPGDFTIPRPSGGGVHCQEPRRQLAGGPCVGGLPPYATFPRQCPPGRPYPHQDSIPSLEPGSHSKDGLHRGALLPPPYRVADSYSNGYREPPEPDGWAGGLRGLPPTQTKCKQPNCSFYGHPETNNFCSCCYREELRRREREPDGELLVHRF

For orientation: IC50 means the concentration that gives 50% inhibition. With `N#CN1CCC2(C1)Oc1nc(-c3ccccc3)ccc1NC2=O` (centres unmarked) [Example 54, 2-Oxo-6-phenyl-1,2-dihydrospiro[pyrido[2,3-b][1,4]oxazine-3,3′-pyrrolidine]-1′-carbonitrile], the IC50 under setting [1] lay in the range of 100 to 1000 nM.
Still for that read-out and setting: in the case of `CN(C)C(=O)c1cccc(-c2ccc3c(c2)CC2(CCN(C#N)C2)C(=O)N3)c1` (centres unmarked) [Example 130, 3-(1-Cyano-2′-oxo-1′,4′-dihydro-2′H-spiro[pyrrolidine-3,3′-quinolin]-6′-yl)-N,N-dimethylbenzamide] it was 100 to 1000 nM.
Regarding `N#CN1CCC2(Cc3cc(-c4ccc(Oc5ccccc5)cc4)ccc3NC2=O)C1` (centres unmarked) [Example 96, 2′-Oxo-6′-(4-phenoxyphenyl)-1′,4′-dihydro-2′H-spiro[pyrrolidine-3,3′-quinoline]-1-carbonitrile], the IC50 under setting [1] was 1000 to 10000 nM.
On to `N#CN1CC[C@@]2(C1)Oc1ncc(-c3ccccc3)cc1NC2=O` [Example 64, (S)-2-Oxo-7-phenyl-1,2-dihydrospiro[pyrido[2,3-b][1,4]oxazine-3,3′-pyrrolidine]-1′-carbonitrile], for which, under setting [1], the IC50 lay within 100 to 1000 nM.
In the case of `N#Cc1ccc(-c2cnc3c(c2)NC(=O)C2(CCN(C#N)C2)O3)cc1` (centres unmarked) [Example 50, 7-(4-Cyanophenyl)-2-oxo-1,2-dihydrospiro[pyrido[2,3-b][1,4]oxazine-3,3′-pyrrolidine]-1′-carbonitrile], the IC50 under setting [1] lay within 100 to 1000 nM.
On the same count and under the same terms, with `N#Cc1ccc(-c2ccc3c(c2)CC2(CCN(C#N)C2)C(=O)N3)cc1` (centres unmarked) [Example 42, 6′-(4-Cyanophenyl)-2′-oxo-1′,4′-dihydro-2′H-spiro[pyrrolidine-3,3′-quinoline]-1-carbonitrile] the figure was 100 to 1000 nM; with `N#Cc1ccc(-c2cnc3c(c2)NC(=O)C2(CCN(C#N)C2)N3)cc1` (centres unmarked) [Example 58, 7-(4-Cyanophenyl)-2-oxo-1,4-dihydro-2H-spiro[pyrido[2,3-b]pyrazine-3,3′-pyrrolidine]-1′-carbonitrile], 100 to 1000 nM.
On to `CC(=O)Nc1ccccc1-c1ccc2c(c1)CC1(CCN(C#N)C1)C(=O)N2` (centres unmarked) [Example 119, N-(2-(1-Cyano-2′-oxo-1′,4′-dihydro-2′H-spiro[pyrrolidine-3,3′-quinolin]-6′-yl)phenyl)acetamide], for which the IC50 under setting [1] fell in the range of 100 to 1000 nM.
As to `Cc1n[nH]c(C)c1-c1ccc2c(c1)NC(=O)C1(CCN(C#N)C1)C2` (centres unmarked) [Example 33, 7′-(3,5-Dimethyl-1H-pyrazol-4-yl)-2′-oxo-1′,4′-dihydro-2′H-spiro[pyrrolidine-3,3′-quinoline]-1-carbonitrile], under setting [1], the concentration for half-maximal inhibition (IC50) lay within 1000 to 10000 nM.
For `N#Cc1cccc(-c2ccc3c(c2)CC2(CCN(C#N)C2)C(=O)N3)c1` (centres unmarked) [Example 43, 6′-(3-Cyanophenyl)-2′-oxo-1′,4′-dihydro-2′H-spiro[pyrrolidine-3,3′-quinoline]-1-carbonitrile], under setting [1], the IC50 fell in the range of 100 to 1000 nM.
As for `N#CN1CCC2(Cc3ccc(-c4ccc(-c5ccccc5)cc4)cc3NC2=O)C1` (centres unmarked) [Example 6, 7′-([1,1′-Biphenyl]-4-yl)-2′-oxo-1′,4′-dihydro-2′H-spiro[pyrrolidine-3,3′-quinoline]-1-carbonitrile], the IC50 lay within 1000 to 10000 nM.
On to `Cn1ncc2cc(-c3ccc4c(c3)CC3(CCN(C#N)C3)C(=O)N4)ccc21` (centres unmarked) [Example 107, 6′-(1-Methyl-1H-indazol-5-yl)-2′-oxo-1′,4′-dihydro-2′H-spiro[pyrrolidine-3,3′-quinoline]-1-carbonitrile], for which the IC50 under setting [1] is 100 to 1000 nM.
In the case of `N#CN1CCC2(Cc3ccc(-c4cccc(N5CCCCC5)c4)cc3NC2=O)C1` (centres unmarked) [Example 35, 2′-Oxo-7′-(3-(piperidin-1-yl)phenyl)-1′,4′-dihydro-2′H-spiro[pyrrolidine-3,3′-quinoline]-1-carbonitrile], the IC50 under setting [1] is 1000 to 10000 nM.
With `N#CN1CCC2(Cc3cc(-c4cccc(S(=O)(=O)N5CCOCC5)c4)ccc3NC2=O)C1` (centres unmarked) [Example 121, 6′-(3-(Morpholinosulfonyl)phenyl)-2′-oxo-1′,4′-dihydro-2′H-spiro[pyrrolidine-3,3′-quinoline]-1-carbonitrile], the IC50 under setting [1] is 100 to 1000 nM.
Regarding `N#CN1CCC2(C1)Oc1ncc(-c3cccc(F)c3)cc1NC2=O` (centres unmarked) [Example 53, 7-(3-Fluorophenyl)-2-oxo-1,2-dihydrospiro[pyrido[2,3-b][1,4]oxazine-3,3′-pyrrolidine]-1′-carbonitrile], the IC50 under setting [1] was in the range of 100 to 1000 nM.
Turning to `CNC(=O)c1ccc2c(c1)NC(=O)C1(CCN(C#N)C1)C2` (centres unmarked) [Example 47, 1-Cyano-N-methyl-2′-oxo-1′,4′-dihydro-2′H-spiro[pyrrolidine-3,3′-quinoline]-7′-carboxamide], the IC50 under setting [1] is 1000 to 10000 nM.
`COc1ccc2c(c1)NC(=O)C1(CCN(C#N)C1)C2` (centres unmarked) [Example 3, 7′-Methoxy-2′-oxo-1′,4′-dihydro-2′H-spiro[pyrrolidine-3,3′-quinoline]-1-carbonitrile] registered an IC50 of 1000 to 10000 nM.
For the compound `CN1CCN(c2ccc(-c3ccc4c(c3)CC3(CCN(C#N)C3)C(=O)N4)cc2)CC1` (centres unmarked) [Example 126, 6′-(4-(4-Methylpiperazin-1-yl)phenyl)-2′-oxo-1′,4′-dihydro-2′H-spiro[pyrrolidine-3,3′-quinoline]-1-carbonitrile], the concentration for half-maximal inhibition (IC50) under setting [1] was in the range of 100 to 1000 nM.
Same read-out and setting: in the case of `N#CN1CCC2(C1)Oc1nc(-c3cccc4[nH]ncc34)ccc1NC2=O` (centres unmarked) [Example 139, 6-(1H-Indazol-4-yl)-2-oxo-1,2-dihydrospiro[pyrido[2,3-b][1,4]oxazine-3,3′-pyrrolidine]-1′-carbonitrile] it was 100 to 1000 nM; in that of `COc1ccc(C(C)C)cc1-c1ccc2c(c1)NC(=O)C1(CCN(C#N)C1)C2` (centres unmarked) [Example 5, 7′-(5-Isopropyl-2-methoxyphenyl)-2′-oxo-1′,4′-dihydro-2′H-spiro[pyrrolidine-3,3′-quinoline]-1-carbonitrile], 1000 to 10000 nM.
Same read-out and setting: with `N#CN1CC[C@@]2(C1)Nc1ncc(-c3ccc(F)cc3)cc1NC2=O` [Example 72, (S)-7-(4-Fluorophenyl)-2-oxo-1,4-dihydro-2H-spiro[pyrido[2,3-b]pyrazine-3,3′-pyrrolidine]-1′-carbonitrile] the figure was 100 to 1000 nM.
Same read-out and setting: with `N#CN1CC[C@@]2(C1)Oc1ncc(-c3ccc(F)cc3)cc1NC2=O` [Example 74, (S)-7-(4-Fluorophenyl)-2-oxo-1,2-dihydrospiro[pyrido[2,3-b][1,4]oxazine-3,3′-pyrrolidine]-1′-carbonitrile] the figure was 100 to 1000 nM; with `C[C@@H]1NC(=O)C2(CCN(C#N)C2)NC1=O` (stereo partly drawn) [Example 78, (8S)-8-Methyl-7,10-dioxo-2,6,9-triazaspiro[4.5]decane-2-carbonitrile], 1000 to 10000 nM.
For `N#Cc1cccc(-c2cnc3c(c2)NC(=O)[C@@]2(CCN(C#N)C2)N3)c1` [Example 75, (S)-7-(3-Cyanophenyl)-2-oxo-1,4-dihydro-2H-spiro[pyrido[2,3-b]pyrazine-3,3′-pyrrolidine]-1′-carbonitrile], the IC50 under setting [1] lay in the range of 100 to 1000 nM.
In the case of `N#CN1CCC2(Cc3ccc(-c4cc(OC(F)(F)F)ccc4Cl)cc3NC2=O)C1` (centres unmarked) [Example 14, 7′-(2-Chloro-5-(trifluoromethoxy)phenyl)-2′-oxo-1′,4′-dihydro-2′H-spiro[pyrrolidine-3,3′-quinoline]-1-carbonitrile], the 50% inhibitory concentration (IC50) under setting [1] lay within 1000 to 10000 nM.
For `N#CN1CCC2(Cc3ccc(-c4cccc(NS(=O)(=O)C5CC5)c4)cc3NC2=O)C1` (centres unmarked) [Example 26, N-(3-(1-Cyano-2′-oxo-1′,4′-dihydro-2′H-spiro[pyrrolidine-3,3′-quinolin]-7′-yl)phenyl)cyclopropanesulfonamide], the IC50 under setting [1] was in the range of 100 to 1000 nM.
On the same count and under the same terms, with `CN(C)C(=O)c1ccc2c(c1)NC(=O)C1(CCN(C#N)C1)C2` (centres unmarked) [Example 46, 1-Cyano-N,N-dimethyl-2′-oxo-1′,4′-dihydro-2′H-spiro[pyrrolidine-3,3′-quinoline]-7′-carboxamide] the figure was 1000 to 10000 nM; with `N#CN1CCC2(Cc3ccccc3NC2=O)C1` (centres unmarked) [Example 1, 2′-Oxo-1′,4′-dihydro-2′H-spiro[pyrrolidine-3,3′-quinoline]-1-carbonitrile], 1000 to 10000 nM; with `CC1(c2ccccc2)NC(=O)C2(CCN(C#N)C2)NC1=O` (centres unmarked) [Example 87, 8-Methyl-7,10-dioxo-8-phenyl-2,6,9-triazaspiro[4.5]decane-2-carbonitrile], 100 to 1000 nM.
For `N#CN1CCC2(C1)NC(=O)C(c1ccccc1)NC2=O` (centres unmarked) [Example 79, 7,10-Dioxo-8-phenyl-2,6,9-triazaspiro[4.5]decane-2-carbonitrile], the IC50 under setting [1] lay within 1000 to 10000 nM.
Still for that read-out and setting: with `N#CN1CCC2(C1)Oc1nc(C(=O)Nc3ccccc3)ccc1NC2=O` (centres unmarked) [Example 143, 1′-Cyano-2-oxo-N-phenyl-1,2-dihydrospiro[pyrido[2,3-b][1,4]oxazine-3,3′-pyrrolidine]-6-carboxamide] the figure was 100 to 1000 nM; with `N#CN1CC[C@@]2(C1)Nc1ncccc1NC2=O` [Example 66, (S)-2-Oxo-1,4-dihydro-2H-spiro[pyrido[2,3-b]pyrazine-3,3′-pyrrolidine]-1′-carbonitrile], 100 to 1000 nM.
